Publication PMC8587849, “Antimicrobial and Anticancer Application of Silver(I) Dipeptide Complexes” (Molecules, 2021)
Values joined by “and” are separate entries in the source; they are usually repeats but may differ in a detail not shown here. Equal entries are not always repeated. Where two headings read alike, the source gives them in different places.

Assays:
S. thypimurium TA100 = test: Ames test, plate incorporation method; format: cell-based, Salmonella Typhimurium; details: positive control, 100µg
Source text: (§4) Salmonella Typhimurium TA 98 and TA 100 were obtained from the Czech Collection of Microorganisms. As a positive mutagen, 3-(5-nitro-2-furyl) acrylic acid (NFAA) was used.

S. thypimurium TA98 = test: Ames test, plate incorporation method; format: cell-based, Salmonella Typhimurium; details: positive control, 100µg
Source text: as §4

[1] = system: Escherichia coli (E. coli) CCM 3988; test: Antibacterial activity, macrodilution method; format: cell-based
Procedure: (§5) Cultures of bacteria (in Mueller-Hinton broth, MHB) and yeasts (in Sabouraud’s growth medium, SB) were incubated under shaking (250 rpm) at 37 °C. The growth of bacteria and yeasts was evaluated by measuring the absorbance of the growing cultures (A550) until the cultures reached the stationary growth phase. […] The final concentration of DMSO never exceeded 1.0 vol. % in the control or treated samples. […] The IC50 and MIC90 with respect to MIC80 values were evaluated from toxicity curves.

[2] = system: Staphylococcus aureus CCM 3953; test: Antibacterial activity, macrodilution method; format: cell-based; details: S. aureus
Procedure: as §5

[3] = system: methicillin-resistant Staphylococcus aureus L12; test: Antibacterial activity, macrodilution method; format: cell-based; details: S. aureus L12 (MRSA)
Procedure: as §5

[4] = system: Staphylococcus epidermidis CCM 7221; test: Antibacterial activity, macrodilution method; format: cell-based; details: S.epidermidis
Procedure: as §5

[5] = system: Candida parapsilosis ATCC 22019; test: Antifungal activity (yeast), macrodilution method; format: cell-based; details: C. parapsilosis
Procedure: as §5

Candida albicans SC 5314 = test: Antifungal activity (yeast), macrodilution method; format: cell-based; details: C. albicans
Procedure: (§6) Cultures of bacteria (in Mueller-Hinton broth, MHB) and yeasts (in Sabouraud’s growth medium, SB) were incubated under shaking (250 rpm) at 37 °C. The growth of bacteria and yeasts was evaluated by measuring the absorbance of the growing cultures (A550) until the cultures reached the stationary growth phase. […] During culturing, the diameters of growing fungal colonies were measured at regular intervals [71, 72]. […] The final concentration of DMSO never exceeded 1.0 vol. % in the control or treated samples. […] The IC50 and MIC90 with respect to MIC80 values were evaluated from toxicity curves.

[6] = system: Rhizopus oryzae CCM F-8284; test: Antifungal activity (filamentous fungi), macrodilution on solidified PDA; format: cell-based; details: for IC50: read-out: IC50; for MIC100: suffix s = fungistatic
Procedure: as §6

[7] = system: Alternaria alternata CCM F-128; test: as above; format: cell-based; details: A. alternata; for IC50: read-out: IC50; for MIC100: suffix s = fungistatic
Procedure: as §6

A.flavus = test: Antifungal activity (filamentous fungi); format: cell-based; details: read-out: IC50 and MIC100 (class symbol)
Procedure: as §6

[8] = system: Microsporum gypseum CCM F-8342; test: Antifungal activity (filamentous fungi), macrodilution on solidified PDA; format: cell-based; details: M.gypseum
Procedure: as §6

S. aureus biofilm = test: Influence on S. aureus biofilm formation, crystal violet staining; format: cell-based; details: for A570 (biofilm, crystal violet): control A570 = 0.47; for I: biofilm intensity: control strong
Procedure: The biofilm was qualified by the crystal violet staining method. Briefly, overnight cultures of bacteria S.aureus (in MHB) and yeasts C.parapsislosis (in SB) were prepared. The fresh prepared growth media MHB and SB were inoculated with the overnight culture for a final concentration of 5 × 10^6 cells mL^−1. The microbial biofilm was formed in 96-well microplates for adherent cells. […] Prepared cultures were incubated for 2 h at 37 °C. […] The treatment with DMSO (solvent) alone served as a control. The inoculated microplates were incubated at 37 °C for the next 46 h. […] Microplates with mature biofilm were decanted and washed using 200 μL of saline solution. The plate was left for 15 min to dry completely at laboratory temperature. Then, 110 μL of 0.4% crystal violet dye was added to each well, and the plate was incubated for 15 min at laboratory temperature. After the decantation, the plate was washed 3 times with 200 μL of saline solution. Then, 200 μL of 96% ethanol was added. The microplate was left to incubate for 15 min at laboratory temperature. After the transfer of the well content to a clean microplate, the absorbance (570 nm) of released crystal violet (proportionate to biofilm cell density) was measured,, and the values were evaluated as weak biofilm formation A570 <0.1; 0.199>, medium biofilm formation A570 <0.2; 0.3>, strong biofilm formation A570 <0.301; 0.999>, or very strong biofilm formation A570 ≥ 1.00.

HeLa = test: MTS antiproliferative assay; format: cell-based, human; details: 72 h
Procedure: (§1) After 72 h of incubation, 10 µL of MTS was added to each well. […] IC50 values were calculated from MTS analyses.

MCF-7 [9] = test: MTS antiproliferative assay; format: cell-based, human; details: 72 h
Procedure: as §1

BLM = test: MTS antiproliferative assay; format: cell-based, human; details: for IC50: BLM, MTS, 72 h
Procedure: (§2) Cells were maintained in standard conditions with an atmosphere containing 5% CO2 at 37 °C.
as §1

HCT116 = test: MTS antiproliferative assay; format: cell-based, human; details: 72 h
Procedure: as §2, §1

Jurkat = test: MTS antiproliferative assay; format: cell-based, human; details: 72 h
Procedure: as §2, §1

MDA-MB-231 [10] = test: MTS antiproliferative assay; format: cell-based, human; details: 72 h
Procedure: as §2, §1

BJ-5ta = test: MTS assay on fibroblasts; format: cell-based; details: BJ-5ta human skin fibroblasts, 72 h
Procedure: as §1

CT DNA = test: UV-Vis absorption titration with CT DNA; format: binding, calf; details: 0.01 M Tris-HCl pH 7.4; complex 7.85 × 10^−5 M
Procedure: UV–vis spectra were measured in 0.01 M Tris-HCl buffer (pH 7.4) using a Varian Cary 100 Bio spectrophotometer in the range of 230–320 nm and recorded at room temperature (24 °C) using a quartz cuvette of 1 cm path length. The concentration of investigated Ag(I) complexes was 7.85 × 10^−5 M. During the titration, an aliquot of buffered CT DNA solution was added to each cuvette (sample and reference) to eliminate the absorbance of DNA itself. The DNA concentration per nucleotide was determined by absorption spectroscopy using the molar absorption coefficient (6600 M^−1cm^−1) at 260 nm.

CT DNA–HO system = test: Fluorescence competitive binding with Hoechst 33258; parameters: species or system calf; details: displacement of Hoechst 33258 from CT DNA; 462 nm; 10 mM Tris-HCl pH 7.4
Procedure: The fluorescence competitive binding studies of silver(I) complexes with Hoechst 33 258 (HO) were performed on a Varian Cary Eclipse spectrophotometer. The emission spectra of DNA–HO were measured in the range of 400–550 nm using an excitation wavelength of 343 nm with a slit width of 5 nm for the excitation and 5 nm for the emission beam. […] Ksv quenching constant was determined according to the classical Stern-Volmer Equation (1) in [63, 75]:F0/F = 1 + KSV [Q](1) where F0 and F are the fluorescence intensities in the absence and the presence of the quencher at 462 nm, KSV is the Stern-Volmer quenching constant and [Q] is the concentration of the quencher.

BLM cells = test: Cell cycle analysis by flow cytometry; format: cell-based, human; details: treated with IC50
Procedure: (§3) Prior to each analysis, cells were washed in PBS, followed by resuspending in staining solution (0.5 mg/mL ribonuclease A, 0.2% final concentration Triton X-100, propidium iodide 0.025 mg/mL in 500 µL PBS) (all Sigma Aldrich), and incubated for 30 min at room temperature in the dark. For analysis of stained cells, a BD FACSCalibur flow cytometer (BD Bio-sciences) was used. A minimum of 1 × 10^4 events were analysed per analysis.

HCT116 cells = test: Cell cycle analysis by flow cytometry; format: cell-based, human; details: treated with IC50
Procedure: as §3

Jurkat cells = test: Cell cycle analysis by flow cytometry; format: cell-based, human; details: treated with IC50
Procedure: as §3

MDA-MB-231 cells = test: Cell cycle analysis by flow cytometry; format: cell-based, human; details: treated with IC50
Procedure: as §3

MCF-7 [11] = system: MCF-7; parameters: method as in PMID 33461021; details: cited from earlier work
MDA-MB-231 [12] = system: MDA-MB-231; parameters: method as in PMID 33461021; details: cited from earlier work
MCF-7 cells = details: cited from earlier work

O=C(O)C=Cc1ccc([N+](=O)[O-])o1 [NFAA, 3-(5-nitro-2-furyl) acrylic acid]
Revertants CFU No. ± SD (S. thypimurium TA100): 1352± 124 CFU | Revertants CFU No. ± SD (S. thypimurium TA98): 28 ± 2 CFU

[Ag2(GlyAla)(NO3)2]n [AgGlyAla]
IC50 [1]: 6 µM | MIC90 [1]: 9 µM | IC50 [2]: 7 µM | MIC90 [2]: 11 µM | IC50 [3]: 9 µM | MIC90 [3]: 20 µM | IC50 [4]: 8 µM | MIC90 [4]: 10 µM | IC50 [5]: 30 µM | MIC80 [5]: 60 µM | IC50 (Candida albicans SC 5314): 50 µM | MIC80 (Candida albicans SC 5314): 87 µM | IC50 [6]: 30 µM | MIC100 [6]: 50 µM | IC50 [7]: 42 µM | MIC100 [7]: > 100 µM | IC50 (A.flavus): > 100 µM | IC50 ([8]; read-out: IC50): 75 µM | MIC100 ([8]; suffix s = fungistatic): 100 µM | A570 (biofilm, crystal violet) (S. aureus biofilm; complex concentration 5 µM): 0.51 | I: biofilm intensity (S. aureus biofilm; complex concentration 5 µM): strong (strong biofilm formation A570 <0.301; 0.999>) | A570 (biofilm, crystal violet) (S. aureus biofilm; complex concentration 10 µM): 0.41 | I: biofilm intensity (S. aureus biofilm; complex concentration 10 µM): strong (strong biofilm formation A570 <0.301; 0.999>) | A570 (biofilm, crystal violet) (S. aureus biofilm; complex concentration 25 µM): 0.25 | A570 (biofilm, crystal violet) (S. aureus biofilm; complex concentration 50 µM): 0.23 | A570 (biofilm, crystal violet) (S. aureus biofilm; complex concentration 100 µM): 0.25 | I: biofilm intensity (S. aureus biofilm; complex concentration 100 µM): medium (medium biofilm formation A570 <0.2; 0.3>) | IC50 (HeLa): 33.2 µM | IC50 (MCF-7 [9]): 7.5 µM | IC50 (BLM): 10.9 µM | Selectivity index (SI) (BLM; ratio of IC50 values BJ-5ta/BLM): 3.7 | IC50 (HCT116): 28 µM | IC50 (Jurkat): 9.7 µM | IC50 (MDA-MB-231 [10]): 7.4 µM | IC50 (BJ-5ta): 40.2 µM | Hypochromism (CT DNA): 40.7% | Δλmax (red shift on addition of CT DNA) (CT DNA): 9 nm | KSV (Stern-Volmer quenching constant) (CT DNA–HO system): 7.97 ± 0.03 × 10^4 M^−1 | cells in G2/M (BLM cells; 48 h): 28.9 ± 2.7% | cells in S (BLM cells; 48 h): 19.5 ± 0.1% | cells in G2/M (BLM cells; 72 h): 27.3 ± 1.3% | cells in S (BLM cells; 72 h): 18.8 ± 0.4% | cells in G2/M (HCT116 cells; 48 h): 14.0 ± 0.4% | cells in S (HCT116 cells; 48 h): 7.0 ± 0.3% | cells in G2/M (HCT116 cells; 72 h): 7.6 ± 1.7% | cells in S (HCT116 cells; 72 h): 8.1 ± 1.2% | cells in G2/M (Jurkat cells; 48 h): 17.9 ± 1.8% | cells in S (Jurkat cells; 48 h): 12.6 ± 0.5% | cells in G2/M (Jurkat cells; 72 h): 10.3 ± 3.1% | cells in S (Jurkat cells; 72 h): 12.1 ± 1.8% | cells in G2/M (MDA-MB-231 cells; 24 h): 22.8 ± 2.5% and 22.8% | cells in S (MDA-MB-231 cells; 24 h): 11.2 ± 2.0% | cells in G2/M (MDA-MB-231 cells; 48 h): 19.4 ± 0.1% | cells in S (MDA-MB-231 cells; 48 h): 11.1 ± 0.7%

[Ag3(Gly)2NO3]n
IC50 (MCF-7 [11]): 2.6 ± 0.1 µM | IC50 (MDA-MB-231 [12]): 2.7 ± 0.2 µM | cells in sub-G0 population (MCF-7 cells; MFC-7 cancer cells, Control 9.8%, ref Banti et al.): 42.7% | cells in S phase (MCF-7 cells): 24.1%

[Ag2(HGlyAsp)(NO3)]n [AgGlyAsp]
IC50 [1]: 17 µM | MIC90 [1]: 23 µM | IC50 [2]: 51 µM | MIC90 [2]: 96 µM | IC50 [3]: 31 µM | MIC90 [3]: 49 µM | IC50 [4]: 25 µM | MIC90 [4]: 50 µM | IC50 [5]: 50 µM | MIC80 [5]: 100 µM | IC50 (Candida albicans SC 5314): 73 µM | MIC80 (Candida albicans SC 5314): 100 µM | IC50 [6]: 73 µM | MIC100 [6]: 100 µM | IC50 [7]: 35 µM | MIC100 [7]: > 100 µM | IC50 (A.flavus): > 100 µM | IC50 ([8]; read-out: IC50 and MIC100 (class symbol)): > 100 µM | A570 (biofilm, crystal violet) (S. aureus biofilm; complex concentration 5 µM): 0.36 | I: biofilm intensity (S. aureus biofilm; complex concentration 5 µM): strong (strong biofilm formation A570 <0.301; 0.999>) | A570 (biofilm, crystal violet) (S. aureus biofilm; complex concentration 10 µM): 0.35 | I: biofilm intensity (S. aureus biofilm; complex concentration 10 µM): strong (strong biofilm formation A570 <0.301; 0.999>) | A570 (biofilm, crystal violet) (S. aureus biofilm; complex concentration 50 µM): 0.24 | A570 (biofilm, crystal violet) (S. aureus biofilm; complex concentration 100 µM): 0.25 | I: biofilm intensity (S. aureus biofilm; complex concentration 100 µM): medium (medium biofilm formation A570 <0.2; 0.3>) | IC50 (HeLa): 33.3 µM | IC50 (MCF-7 [9]): 33.8 µM | IC50 (BLM): 35.6 µM | IC50 (HCT116): 35.5 µM | IC50 (Jurkat): 36.8 µM | IC50 (MDA-MB-231 [10]): 33.6 µM | IC50 (BJ-5ta): 57.6 µM | Hypochromism (CT DNA): 30% and 30.8% | Δλmax (red shift on addition of CT DNA) (CT DNA): 13 nm | KSV (Stern-Volmer quenching constant) (CT DNA–HO system): 8.33 ± 0.07 × 10^4 M^−1 | cells in G2/M (BLM cells; 24 h): 14.8 ± 0.2% | cells in S (BLM cells; 24 h): 13.8 ± 3.0% | cells in Sub-G0 (BLM cells; 24 h): 51.7% | cells in G2/M (BLM cells; 48 h): 10.9 ± 2.8% | cells in S (BLM cells; 48 h): 10.8 ± 2.5% | cells in Sub-G0 (BLM cells; 48 h): 56.1% | cells in Sub-G0 (BLM cells; 72 h): 59.3% | cells in G2/M (HCT116 cells; 24 h): 16.8 ± 2.4% | cells in S (HCT116 cells; 24 h): 16.3 ± 2.3% | cells in G2/M (HCT116 cells; 48 h): 11.7 ± 3.4% | cells in S (HCT116 cells; 48 h): 10.3 ± 1.3% | cells in G2/M (Jurkat cells; 24 h): 15.5 ± 2.7% | cells in S (Jurkat cells; 24 h): 14.0 ± 0.6% | cells in G2/M (Jurkat cells; 48 h): 6.3 ± 0.3% | cells in S (Jurkat cells; 48 h): 12.4 ± 1.1% | cells in G2/M (MDA-MB-231 cells; 24 h): 30.6% | cells in G2/M (MDA-MB-231 cells; 48 h): 25.8 ± 0.5% | cells in S (MDA-MB-231 cells; 48 h): 10.6 ± 1.9% | cells in G2/M (MDA-MB-231 cells; 72 h): 9.6 ± 1.2% | cells in S (MDA-MB-231 cells; 72 h): 7.1 ± 2.4%
